{"source": "patent US4756118A", "about": "“Method and apparatus for the destruction of imported fire ants of the genus Solenopsis” (priority 1986, dated 1988)", "origin": "cited, not measured here", "key": {"Imported Fire Ant": {"system": "Imported Fire Ant", "conditions": "poison bait"}, "[1]": {"conditions": "relative to pyrethrum"}}, "data": [{"smiles": "CC1(C)CNC(=NN=C(C=Cc2ccc(C(F)(F)F)cc2)C=Cc2ccc(C(F)(F)F)cc2)NC1", "note": "[Amdro]", "values": [{"measurement": "effectiveness in Imported Fire Ant control", "setting": "Imported Fire Ant", "result": "very limited in its effectiveness"}]}, {"smiles": "ClC1(Cl)C2(Cl)C3(Cl)C4(Cl)C(Cl)(Cl)C5(Cl)C3(Cl)C1(Cl)C5(Cl)C24Cl", "note": "(centres unmarked) [Mirex, dodecachloroocta-hydro-1,3,4-metheno-2H-cyclobuta(cd)pentalene]", "values": [{"measurement": "Acute Oral LD50", "result": 306, "unit": "mg/kg"}, {"measurement": "effectiveness in Imported Fire Ant control", "setting": "Imported Fire Ant", "result": "most effective chemical control agent"}]}, {"smiles": "CC(C)=CC1C(C(=O)OCc2coc(Cc3ccccc3)c2)C1(C)C", "note": "(centres unmarked) [Resmethrin, [5-(phenylmethyl)-3-furanyl]methyl 2,2-dimethyl-3-(2-methyl-1-propenyl)cyclopropanecarboxylate]", "values": [{"measurement": "times more effective than pyrethrum", "setting": "[1]", "result": "~20", "unit": "times"}, {"measurement": "Acute Oral LD50", "result": "4,420 mg./kg."}]}]}
